Set-up: species or system non-human primates (Cyno)
Settings: cynomolgus monkey, in vivo
Experimental: Biotinylated PEG microgels (150 μm diameter) were synthesized by microfluidic cross-linking and functionalized with SA-FasL as previously described (Headon, D M, et al., Nat. Mater. 17:732-739 (2018)). Four diabetic non-human primates (NHP) (FIG. 1B; Tables 1 and 2) underwent transplantation of allogeneic islets (14,800 to 18,700 islet equivalents (IEQ)/kg) mixed with SA-FasL-presenting microgels (150,000 to 200,000 microgels delivering 0.2 mg of SA-FasL) on the omental surface. […]
At selected time points, intravenous glucose tolerance tests (IVGTT) were performed to assess glucose disposal kinetics and insulin and C-peptide levels. […] Consistent with these metrics of graft function, background levels of insulin and C-peptide were measured in the serum of SA-FasL microgel NHPs after STZ administration but before islet transplant and equivalently low levels were evident post-graft removal (insulin: pre-STZ vs. post-STZ, P<0.0001; post-STZ vs. post-graft removal (PGR), P=0.9998; C-peptide: pre-STZ vs. post-STZ, P=0.0060; post-STZ vs. post-graft removal, P=0.4032) (FIG. 2D). […] SA-FasL protein was detected in the serum of all NHPs as early as 1-day after transplantation ranging from 4-56 ng/mL and decreasing to background levels by days 7-14.

Time after discontinuation at which sirolimus levels became undetectable: 2 weeks
Compound: CO[C@H]1C[C@@H]2CC[C@@H](C)[C@@](O)(O2)C(=O)C(=O)N2CCCC[C@H]2C(=O)O[C@H]([C@H](C)C[C@@H]2CC[C@@H](O)[C@H](OC)C2)CC(=O)[C@H](C)/C=C(\C)[C@@H](O)[C@@H](OC)C(=O)[C@H](C)C[C@H](C)/C=C/C=C/C=C/1C [Sirolimus]
